Measurements: US20210299022A1, “COMPOSITION FOR THE TREATMENT OF NAIL FUNGUS” (Oystershell NV, priority 2020, published 2021)

Key:
[1] = tolerance of fluorescent whitening agent upon nails; type: in vivo; settings: applied upon nails
From the text: In a preferred embodiment, the composition according to the invention includes 2,5-bis(5-tert-butyl-benzoxazol-2-yl)thiophene as fluorescent whitening agent. 2,5-bis(5-tert-butyl-benzoxazol-2-yl)thiophene is known as FWA-184 and has CAS No: [7128-64-5].

[2] = stability of optical brightener in the composition; type: physicochemical; settings: in composition of example 1
From the text: FWA-184, also known as OB-184 or 2,5′-Bis[2-(5-tert-buty 1-2 benzoxazoly)thiophene is an optical brightener known for polymers, paints and detergents. It's suitable for use in polymers which come into contact with keratinous tissue and skin. Furthermore, it is stable in the present composition. […] It is important that the film-forming polymer is transparent to both visible ranges as well as the wavelengths which are absorbed by the fluorescent whitening agent.

For CC(C)(C)c1ccc2oc(-c3ccc(-c4nc5cc(C(C)(C)C)ccc5o4)s3)nc2c1 [FWA-184, 2,5-bis(5-tert-butyl-benzoxazol-2-yl)thiophene], the tolerance upon nails [1] was “well tolerated” and the “stability in the present composition” value [2] was “stable”.
